Assay results as given in the supplement of paper PMC10307832.

Key:
Assay in all cases: relative viability (nuclei count vs DMSO), 5 days (fraction); higher = more cells survive
Avagacestat + OSI-027 = compound: NC(=O)[C@@H](CCC(F)(F)F)N(Cc1ccc(-c2ncon2)cc1F)S(=O)(=O)c1ccc(Cl)cc1 [Avagacestat] + COc1cccc2cc(-c3nc([C@H]4CC[C@H](C(=O)O)CC4)n4ncnc(N)c34)[nH]c12 [OSI-027] (partner 0.5 µM)
Outline: (§1)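 Values are medians from duplicate plates. Each reflects relative viability, defined as the nuclei count of treated wells over that of vehicle wells. Lung cancer cell lines in 1536-well plates were pin-tool dosed one day after seeding with one drug alone or with a fixed anchor-drug dose plus five library-drug doses (not always all listed) in √10 steps, then fixed, stained and imaged at 4× after 5 days.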

Avagacestat + Crizotinib = compound: NC(=O)[C@@H](CCC(F)(F)F)N(Cc1ccc(-c2ncon2)cc1F)S(=O)(=O)c1ccc(Cl)cc1 [Avagacestat] + C[C@@H](Oc1cc(-c2cnn(C3CCNCC3)c2)cnc1N)c1c(Cl)ccc(F)c1Cl [Crizotinib] (partner 1 µM)
Outline: as §1

Avagacestat + Phenformin = compound: NC(=O)[C@@H](CCC(F)(F)F)N(Cc1ccc(-c2ncon2)cc1F)S(=O)(=O)c1ccc(Cl)cc1 [Avagacestat] + N=C(N)NC(=N)NCCc1ccccc1 [Phenformin] (partner 250 µM)
Outline: as §1

Avagacestat + Trametinib = compound: NC(=O)[C@@H](CCC(F)(F)F)N(Cc1ccc(-c2ncon2)cc1F)S(=O)(=O)c1ccc(Cl)cc1 [Avagacestat] + CC(=O)Nc1cccc(-n2c(=O)n(C3CC3)c(=O)c3c(Nc4ccc(I)cc4F)n(C)c(=O)c(C)c32)c1 [Trametinib] (partner 0.02 µM)
Outline: as §1

For LCLC-97TM1, the relative viability (Avagacestat + OSI-027; first compound 0.08 µM) was 0.562, the relative viability (Avagacestat + OSI-027; first compound 0.253 µM) was 0.674 and the relative viability (Avagacestat + OSI-027; first compound 0.8 µM) was 0.424. The relative viability (Avagacestat + OSI-027; first compound 2.53 µM) was 0.694, the relative viability (Avagacestat + OSI-027; first compound 8 µM) was 0.518 and the relative viability (Avagacestat + Crizotinib; first compound 0.08 µM) was 0.317. The relative viability (Avagacestat + Crizotinib; first compound 0.253 µM) was 0.289, the relative viability (Avagacestat + Crizotinib; first compound 0.8 µM) was 0.301 and the relative viability (Avagacestat + Crizotinib; first compound 2.53 µM) was 0.241. For the same cell line, the relative viability (Avagacestat + Crizotinib; first compound 8 µM) was 0.397, the relative viability (Avagacestat + Phenformin; first compound 0.08 µM) was 0.526 and the relative viability (Avagacestat + Phenformin; first compound 0.253 µM) was 0.472. It also gave a relative viability (Avagacestat + Phenformin; first compound 0.8 µM) of 0.487, a relative viability (Avagacestat + Phenformin; first compound 2.53 µM) of 0.481 and a relative viability (Avagacestat + Phenformin; first compound 8 µM) of 0.468. For the same cell line, the relative viability (Avagacestat + Trametinib; first compound 0.08 µM) was 0.241, the relative viability (Avagacestat + Trametinib; first compound 0.253 µM) was 0.251 and the relative viability (Avagacestat + Trametinib; first compound 0.8 µM) was 0.266. For the same cell line, the relative viability (Avagacestat + Trametinib; first compound 2.53 µM) was 0.174 and the relative viability (Avagacestat + Trametinib; first compound 8 µM) was 0.22.
NCI-H522 showed a relative viability (Avagacestat + OSI-027; first compound 0.08 µM) of 0.823, a relative viability (Avagacestat + OSI-027; first compound 0.253 µM) of 0.728 and a relative viability (Avagacestat + OSI-027; first compound 0.8 µM) of 0.655. It also gave a relative viability (Avagacestat + OSI-027; first compound 2.53 µM) of 0.689, a relative viability (Avagacestat + OSI-027; first compound 8 µM) of 0.725 and a relative viability (Avagacestat + Phenformin; first compound 0.08 µM) of 0.71. For the same cell line, the relative viability (Avagacestat + Phenformin; first compound 0.253 µM) was 0.59, the relative viability (Avagacestat + Phenformin; first compound 0.8 µM) was 0.669 and the relative viability (Avagacestat + Phenformin; first compound 2.53 µM) was 0.641. The relative viability (Avagacestat + Phenformin; first compound 8 µM) was 0.649, the relative viability (Avagacestat + Trametinib; first compound 0.08 µM) was 0.748 and the relative viability (Avagacestat + Trametinib; first compound 0.253 µM) was 0.74. The relative viability (Avagacestat + Trametinib; first compound 0.8 µM) was 0.734, the relative viability (Avagacestat + Trametinib; first compound 2.53 µM) was 0.72 and the relative viability (Avagacestat + Trametinib; first compound 8 µM) was 0.795.
Work on NCI-H1299 yielded a relative viability (Avagacestat + Crizotinib; first compound 0.08 µM) of 1.01, a relative viability (Avagacestat + Crizotinib; first compound 0.253 µM) of 1.05 and a relative viability (Avagacestat + Crizotinib; first compound 0.8 µM) of 0.952. For the same cell line, the relative viability (Avagacestat + Crizotinib; first compound 2.53 µM) was 0.98 and the relative viability (Avagacestat + Crizotinib; first compound 8 µM) was 0.91.
NCI-H1395 was tested, and the relative viability (Avagacestat + OSI-027; first compound 0.08 µM) was 0.631, the relative viability (Avagacestat + OSI-027; first compound 0.253 µM) was 0.633 and the relative viability (Avagacestat + OSI-027; first compound 0.8 µM) was 0.634. For the same cell line, the relative viability (Avagacestat + OSI-027; first compound 2.53 µM) was 0.588, the relative viability (Avagacestat + OSI-027; first compound 8 µM) was 0.626 and the relative viability (Avagacestat + Phenformin; first compound 0.08 µM) was 0.424. The relative viability (Avagacestat + Phenformin; first compound 0.253 µM) was 0.456, the relative viability (Avagacestat + Phenformin; first compound 0.8 µM) was 0.432 and the relative viability (Avagacestat + Phenformin; first compound 2.53 µM) was 0.45. The relative viability (Avagacestat + Phenformin; first compound 8 µM) was 0.457, the relative viability (Avagacestat + Trametinib; first compound 0.08 µM) was 1.02 and the relative viability (Avagacestat + Trametinib; first compound 0.253 µM) was 1.05. For the same cell line, the relative viability (Avagacestat + Trametinib; first compound 0.8 µM) was 0.926, the relative viability (Avagacestat + Trametinib; first compound 2.53 µM) was 0.803 and the relative viability (Avagacestat + Trametinib; first compound 8 µM) was 0.949.
NCI-H1563 was tested, and the relative viability (Avagacestat + OSI-027; first compound 0.08 µM) was 0.829, the relative viability (Avagacestat + OSI-027; first compound 0.253 µM) was 0.776 and the relative viability (Avagacestat + OSI-027; first compound 0.8 µM) was 0.736. For the same cell line, the relative viability (Avagacestat + OSI-027; first compound 2.53 µM) was 0.735, the relative viability (Avagacestat + OSI-027; first compound 8 µM) was 0.719 and the relative viability (Avagacestat + Crizotinib; first compound 0.08 µM) was 0.883. For the same cell line, the relative viability (Avagacestat + Crizotinib; first compound 0.253 µM) was 0.751, the relative viability (Avagacestat + Crizotinib; first compound 0.8 µM) was 0.83 and the relative viability (Avagacestat + Crizotinib; first compound 2.53 µM) was 0.801. For the same cell line, the relative viability (Avagacestat + Crizotinib; first compound 8 µM) was 0.708, the relative viability (Avagacestat + Phenformin; first compound 0.08 µM) was 0.665 and the relative viability (Avagacestat + Phenformin; first compound 0.253 µM) was 0.669. The relative viability (Avagacestat + Phenformin; first compound 0.8 µM) was 0.746, the relative viability (Avagacestat + Phenformin; first compound 2.53 µM) was 0.646 and the relative viability (Avagacestat + Phenformin; first compound 8 µM) was 0.658.
In the case of NCI-H1648, the relative viability (Avagacestat + OSI-027; first compound 0.08 µM) is reported as 0.266, the relative viability (Avagacestat + OSI-027; first compound 0.253 µM) is reported as 0.273 and the relative viability (Avagacestat + OSI-027; first compound 0.8 µM) is reported as 0.271. The relative viability (Avagacestat + OSI-027; first compound 2.53 µM) was 0.255, the relative viability (Avagacestat + OSI-027; first compound 8 µM) was 0.232 and the relative viability (Avagacestat + Trametinib; first compound 0.08 µM) was 0.443. It also gave a relative viability (Avagacestat + Trametinib; first compound 0.253 µM) of 0.426, a relative viability (Avagacestat + Trametinib; first compound 0.8 µM) of 0.36 and a relative viability (Avagacestat + Trametinib; first compound 2.53 µM) of 0.318. The relative viability (Avagacestat + Trametinib; first compound 8 µM) was 0.32.
With NCI-H1703 the relative viability (Avagacestat + Crizotinib; first compound 0.08 µM) was 0.975, the relative viability (Avagacestat + Crizotinib; first compound 0.253 µM) was 0.777 and the relative viability (Avagacestat + Crizotinib; first compound 0.8 µM) was 0.864. The relative viability (Avagacestat + Crizotinib; first compound 2.53 µM) was 0.587 and the relative viability (Avagacestat + Crizotinib; first compound 8 µM) was 0.581.
In the case of NCI-H1793, the relative viability (Avagacestat + OSI-027; first compound 0.08 µM) is reported as 0.327, the relative viability (Avagacestat + OSI-027; first compound 0.253 µM) is reported as 0.338 and the relative viability (Avagacestat + OSI-027; first compound 0.8 µM) is reported as 0.373. The relative viability (Avagacestat + OSI-027; first compound 2.53 µM) was 0.233, the relative viability (Avagacestat + OSI-027; first compound 8 µM) was 0.249 and the relative viability (Avagacestat + Phenformin; first compound 0.08 µM) was 0.411. It also gave a relative viability (Avagacestat + Phenformin; first compound 0.253 µM) of 0.291, a relative viability (Avagacestat + Phenformin; first compound 0.8 µM) of 0.337 and a relative viability (Avagacestat + Phenformin; first compound 2.53 µM) of 0.284. The relative viability (Avagacestat + Phenformin; first compound 8 µM) was 0.319, the relative viability (Avagacestat + Trametinib; first compound 0.08 µM) was 0.52 and the relative viability (Avagacestat + Trametinib; first compound 0.253 µM) was 0.536. For the same cell line, the relative viability (Avagacestat + Trametinib; first compound 0.8 µM) was 0.459, the relative viability (Avagacestat + Trametinib; first compound 2.53 µM) was 0.519 and the relative viability (Avagacestat + Trametinib; first compound 8 µM) was 0.479.
In the case of NCI-H2342, the relative viability (Avagacestat + OSI-027; first compound 0.08 µM) is reported as 0.589, the relative viability (Avagacestat + OSI-027; first compound 0.253 µM) is reported as 0.597 and the relative viability (Avagacestat + OSI-027; first compound 0.8 µM) is reported as 0.674. The relative viability (Avagacestat + OSI-027; first compound 2.53 µM) was 0.602, the relative viability (Avagacestat + OSI-027; first compound 8 µM) was 0.572 and the relative viability (Avagacestat + Phenformin; first compound 0.08 µM) was 0.634. It also gave a relative viability (Avagacestat + Phenformin; first compound 0.253 µM) of 0.53, a relative viability (Avagacestat + Phenformin; first compound 0.8 µM) of 0.629 and a relative viability (Avagacestat + Phenformin; first compound 2.53 µM) of 0.59. It also gave a relative viability (Avagacestat + Phenformin; first compound 8 µM) of 0.588, a relative viability (Avagacestat + Trametinib; first compound 0.08 µM) of 0.725 and a relative viability (Avagacestat + Trametinib; first compound 0.253 µM) of 0.771. The relative viability (Avagacestat + Trametinib; first compound 0.8 µM) was 0.784, the relative viability (Avagacestat + Trametinib; first compound 2.53 µM) was 0.766 and the relative viability (Avagacestat + Trametinib; first compound 8 µM) was 0.693.
In the case of SW 900, the relative viability (Avagacestat + OSI-027; first compound 0.08 µM) is reported as 0.756, the relative viability (Avagacestat + OSI-027; first compound 0.253 µM) is reported as 0.731 and the relative viability (Avagacestat + OSI-027; first compound 0.8 µM) is reported as 0.581. The relative viability (Avagacestat + OSI-027; first compound 2.53 µM) was 0.573, the relative viability (Avagacestat + OSI-027; first compound 8 µM) was 0.653 and the relative viability (Avagacestat + Phenformin; first compound 0.08 µM) was 0.781. For the same cell line, the relative viability (Avagacestat + Phenformin; first compound 0.253 µM) was 0.641, the relative viability (Avagacestat + Phenformin; first compound 0.8 µM) was 0.543 and the relative viability (Avagacestat + Phenformin; first compound 2.53 µM) was 0.571. The relative viability (Avagacestat + Phenformin; first compound 8 µM) was 0.627, the relative viability (Avagacestat + Trametinib; first compound 0.08 µM) was 1.08 and the relative viability (Avagacestat + Trametinib; first compound 0.253 µM) was 0.82. The relative viability (Avagacestat + Trametinib; first compound 0.8 µM) was 0.872, the relative viability (Avagacestat + Trametinib; first compound 2.53 µM) was 0.763 and the relative viability (Avagacestat + Trametinib; first compound 8 µM) was 0.713.
